# Laboratory results: patent publication US20070129568A1, “Ionic liquids” (nGimat, Co., priority 2005, published 2007)
# Assay: Room temperature evaporation rate: rate of weight loss in a stream of 25° C. nitrogen relative to n-butyl acetate
# Assay type: physicochemical
# Details: not given
# Description: Most compounds released by manufacturing processes affect the environment in some manner. […] The room temperature evaporation rates of some of the ILs described in the present invention were compared to several well known compounds by measuring the rate of weight loss in a stream of 25° C. nitrogen relative to the rate of weight loss of n-butyl acetate under the same conditions.
row,Compound,Evaporation Rate (n-Butyl Acetate = 1)
1,"CCCCC(CC)C(=O)[O-].CCCCC(CC)C(=O)[O-].[Zn+2] (stereo not shown) [Zn(2eh)2, zinc (II) 2-ethylhexanoate]",<0.001
2,OCCO [ethylene glycol],<0.01
3,CCCCCC [hexane],8.9

# Same assay, conditions: rate of weight loss in a stream of 25° C. nitrogen, relative to n-butyl acetate under the same conditions
row,Compound,Evaporation Rate (n-Butyl Acetate = 1)
1,"CCCCC(CC)C(=O)O (stereo not shown) [H2eh, 2-ethylhexanoic acid]",0.003
2,CC(C)O [IPA],2.5
3,CC(C)=O [acetone],14.4
4,CCC(C)=O [methyl ethyl ketone],5.7
5,CCCCO [n-Butanol],0.43
6,Cc1ccccc1 [toluene],1.9
7,xylene,0.8
